Test systems include MALME-3M melanoma; A549 NSCLC; HL-60(TB) leukemia; MCF7 breast; K-562 leukemia; UO-31 renal; PC-3 prostate; HCC-2998 colon; MDA-N; SN12C renal; HOP-92 NSCLC; RXF 393 renal.
Holding throughout (assay): inhibition of tumour cell growth, NCI panel, 48 h

Our source for the TGI values is PubChem BioAssay (NCI).

Structures are written as SMILES.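 Cultured in 96-well plates, cells were exposed to test compound for 48 hours across five concentrations. Definition used: TGI = concentration required for complete inhibition of growth.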

With `CC(=O)NC1C(OCc2ccccc2)OC(CO)C(O)C1OC(C)C(=O)NC(C(=O)NC(CCC(=O)Nc1ccc2c(c1)CN1C(=O)c3ccccc3C1=N2)C(N)=O)C(C)C` (stereo unspecified), the TGI in the assay on MALME-3M melanoma, with A549 NSCLC, in the assay with HL-60(TB) leukemia, in the assay with MCF7 breast, in the assay with K-562 leukemia and in the assay with UO-31 renal was above 100 µM in each case. The TGI in the assay on PC-3 prostate, with HCC-2998 colon, with MDA-N, with SN12C renal, in the assay on HOP-92 NSCLC and in the assay with RXF 393 renal was above 100 µM each time.
`O=C1C2=Cc3ccccc3CCN2c2ccc([N+](=O)[O-])cc21`: the TGI is above 100 µM in the assay with MALME-3M melanoma; above 100 µM in the assay on A549 NSCLC; above 100 µM in the assay on HL-60(TB) leukemia; above 100 µM with MCF7 breast; above 100 µM in the assay with K-562 leukemia; 97.7 µM in the assay on UO-31 renal. Further, the TGI in the assay with PC-3 prostate, in the assay on HCC-2998 colon, in the assay on MDA-N, in the assay with SN12C renal, in the assay on HOP-92 NSCLC and in the assay on RXF 393 renal was above 100 µM throughout.
Turning to `CC1C2CC(CC2=O)C1(C)C` (stereo unspecified), the TGI in the assay on MALME-3M melanoma, in the assay on A549 NSCLC, in the assay with HL-60(TB) leukemia, in the assay on MCF7 breast, in the assay with K-562 leukemia and in the assay on UO-31 renal was above 100 µM in each case. Also, the TGI with PC-3 prostate, with HCC-2998 colon, in the assay on MDA-N, with SN12C renal, in the assay on HOP-92 NSCLC and in the assay with RXF 393 renal was above 100 µM each time.
With `CC1(c2nc3ccccc3[nH]2)CCC(CO)C(C)(C)O1` (stereo unspecified), the TGI in the assay with MALME-3M melanoma, with A549 NSCLC, in the assay with HL-60(TB) leukemia, in the assay with MCF7 breast, in the assay on K-562 leukemia and with UO-31 renal was above 100 µM each time. The TGI in the assay on PC-3 prostate, with HCC-2998 colon, with MDA-N, in the assay with SN12C renal, in the assay on HOP-92 NSCLC and in the assay on RXF 393 renal was above 100 µM in each case.
`Cc1cc2c(cc1-c1cc3c(cc1C)C(C(C)C)=C(O)C(=O)/C3=C\Nc1cccc3c(N)cccc13)/C(=C/Nc1cccc3c(N)cccc13)C(=O)C(O)=C2C(C)C`: the TGI with MALME-3M melanoma, in the assay with A549 NSCLC, with HL-60(TB) leukemia, in the assay on MCF7 breast, in the assay with K-562 leukemia and in the assay on UO-31 renal was above 100 µM in each case. Moreover, the TGI in the assay on PC-3 prostate, with HCC-2998 colon, in the assay with MDA-N, with SN12C renal, in the assay on HOP-92 NSCLC and with RXF 393 renal was above 100 µM each time.
Turning to `Nc1nc(Cl)c(N)c(NCC2(CO)CC(O)C2)n1` (stereo unspecified), the TGI in the assay with MALME-3M melanoma, in the assay on A549 NSCLC, in the assay on HL-60(TB) leukemia, with MCF7 breast, in the assay with K-562 leukemia and with UO-31 renal was above 100 µM in each case. The TGI in the assay on PC-3 prostate, in the assay with HCC-2998 colon, in the assay with MDA-N, in the assay on SN12C renal, in the assay with HOP-92 NSCLC and with RXF 393 renal was above 100 µM in each case.
In the case of `CCOC(=O)c1cc(NC(=O)c2ccccc2)c(=O)n2c(cc3c(Cl)cccc32)c1O`, the TGI with MALME-3M melanoma, with A549 NSCLC, in the assay on HL-60(TB) leukemia, with MCF7 breast, in the assay with K-562 leukemia and in the assay on UO-31 renal was above 100 µM each time. For the same compound, the TGI in the assay with PC-3 prostate, in the assay with HCC-2998 colon, with MDA-N, in the assay with SN12C renal, in the assay on HOP-92 NSCLC and in the assay with RXF 393 renal was above 100 µM throughout.
For the compound `O=C(c1no[n+]([O-])c1C(=O)c1csc2ccccc12)c1csc2ccccc12`, the TGI in the assay on MALME-3M melanoma came to 13.5 µM; in the assay with A549 NSCLC it was 35.7 µM; with HL-60(TB) leukemia it was 0.0737 µM; in the assay on MCF7 breast, 25 µM; in the assay with K-562 leukemia, 3.73 µM; with UO-31 renal, 1.02 µM. Also, the TGI in the assay on PC-3 prostate came to 8.33 µM; in the assay with HCC-2998 colon it was 18.4 µM; in the assay on MDA-N, 21.6 µM; in the assay with SN12C renal, 12.1 µM; in the assay on HOP-92 NSCLC it was 5.01 µM; in the assay on RXF 393 renal, 19.4 µM.
`O=Cc1cc(O)ccc1Br`: the TGI in the assay on MALME-3M melanoma is above 31.6 µM; in the assay with A549 NSCLC, above 100 µM; in the assay with HL-60(TB) leukemia it was 5.39 µM; in the assay on MCF7 breast, above 100 µM; in the assay with K-562 leukemia, 19.2 µM; in the assay with UO-31 renal, above 81 µM. The TGI with PC-3 prostate is above 78.4 µM; with HCC-2998 colon it was 30.1 µM; in the assay on MDA-N, 25.6 µM; in the assay on SN12C renal, above 100 µM; with HOP-92 NSCLC it was 75.7 µM; with RXF 393 renal, above 100 µM.
Regarding `CC(C)c1cc(C(C)C)c(P2(=O)CC3C(Cl)(Cl)C3(C)C2)c(C(C)C)c1` (stereo unspecified), the TGI is 33.2 µM in the assay on MALME-3M melanoma; 25.6 µM in the assay on A549 NSCLC; 10.7 µM with HL-60(TB) leukemia; 19.5 µM in the assay with MCF7 breast; above 44.1 µM in the assay with K-562 leukemia; 3.44 µM in the assay with UO-31 renal. Also, the TGI is 17.8 µM in the assay with PC-3 prostate; 26.9 µM with HCC-2998 colon; 27.1 µM in the assay with MDA-N; 29.3 µM in the assay with SN12C renal; 27.3 µM in the assay on HOP-92 NSCLC; 28.2 µM in the assay with RXF 393 renal.
`CC(=O)NC1C(OCc2ccccc2)OC(CO)C(O)C1OCC(=O)NC(C)C(=O)NC(CCC(=O)Nc1ccc2c(c1)CN1C(=O)c3ccccc3C1=N2)C(N)=O` (stereo unspecified): the TGI in the assay with MALME-3M melanoma, in the assay with A549 NSCLC, in the assay with HL-60(TB) leukemia, in the assay on MCF7 breast, with K-562 leukemia and in the assay with UO-31 renal was above 100 µM in each case. For the same compound, the TGI in the assay with PC-3 prostate, in the assay with HCC-2998 colon, in the assay with MDA-N, with SN12C renal, in the assay with HOP-92 NSCLC and with RXF 393 renal was above 100 µM in each case.
In the case of `CC(=O)N(CCc1ccccc1)C(C)(C#N)c1ccccc1` (stereo unspecified), the TGI with MALME-3M melanoma, with A549 NSCLC, in the assay on HL-60(TB) leukemia, in the assay with MCF7 breast, with K-562 leukemia and in the assay on UO-31 renal was above 100 µM throughout. Also, the TGI in the assay on PC-3 prostate, in the assay on HCC-2998 colon, with MDA-N, in the assay with SN12C renal, in the assay with HOP-92 NSCLC and in the assay on RXF 393 renal was above 100 µM in each case.
With `O=C1Nc2ccccc2/C1=C\c1c(Cl)[nH]c2ccccc12`, the TGI in the assay with MALME-3M melanoma came out at 6.39 µM; in the assay on A549 NSCLC, 13.3 µM; with HL-60(TB) leukemia, 0.728 µM; with MCF7 breast, 10.6 µM; in the assay on K-562 leukemia, 7.49 µM; with UO-31 renal, 6.84 µM. Moreover, the TGI worked out at 3.46 µM with PC-3 prostate; 1.68 µM in the assay with HCC-2998 colon; 0.486 µM with MDA-N; 17.5 µM in the assay on SN12C renal; 3.6 µM in the assay on HOP-92 NSCLC; 3.55 µM with RXF 393 renal.
